Assay results published in PMC6544337, “Development of chimeric and bifunctional antagonists for CLR/RAMP receptors” (PLoS ONE, 2019).
One block for each compound: values may come before it.

Key:
CLR/RAMP2 = CLR/RAMP2 (Homo sapiens, UniProt O60895+Q16602); experiment: CLR/RAMP2 PathHunter β-arrestin assay, agonist mode; type: cell-based; conditions: for CLR/RAMP2 Max Activity % of control: agonist mode, positive control ADM, CHO-K1 cells
Method: (§1) The bioactivity of synthetic analogs was studied using cells that stably express CLR/RAMP1 (1321N1 cells) or CLR/RAMP2 (CHO-K1 cells) receptors using CLR/RAMP1 cAMP and CLR/RAMP2 arrestin assays from DiscoveRx (Fremont, Ca). In receptor-activation assays, the dose-dependent stimulatory response was studied in duplicate, at 10 different concentrations.
The CLR/RAMP2 signaling was assayed using the CLR/RAMP2 PathHunter β-Arrestin assay. In this assay, the GPCR was fused in frame with a small enzyme donor fragment ProLink (PK) and co-expressed in cells stably expressing a fusion protein of β-arrestin and an N-terminal deletion mutant of β-galactosidase (i.e., enzyme acceptor or EA). Activation of the CLR/RAMP2 stimulates binding of β-arrestin to the PK-tagged receptor and leads to an increase in enzyme activity that can be measured using chemiluminescent PathHunter Detection Reagents. PathHunter cell lines were seeded in white walled, 384-well microplates and incubated at 37C prior to testing. For agonist determination, intermediate dilution of sample stocks was performed to generate 5X sample in assay buffer, and 5 μl of 5X sample was added to cells and incubated at 37C for 90 minutes. Vehicle concentration was 1%. For antagonistic activity determination, cells were pre-incubated with antagonist followed by agonist challenge at the EC80 concentration.

CLR/RAMP1 = CLR/RAMP1 (Homo sapiens, UniProt O60894+Q16602); experiment: CLR/RAMP1 cAMP assay, agonist mode (DiscoveRx HitHunter cAMP XS+); type: cell-based; conditions: for CLR/RAMP1 Max Activity % of control: agonist mode, positive control CGRP, 1321N1 cells
Chain of CLR/RAMP1 (Q16602 23-461): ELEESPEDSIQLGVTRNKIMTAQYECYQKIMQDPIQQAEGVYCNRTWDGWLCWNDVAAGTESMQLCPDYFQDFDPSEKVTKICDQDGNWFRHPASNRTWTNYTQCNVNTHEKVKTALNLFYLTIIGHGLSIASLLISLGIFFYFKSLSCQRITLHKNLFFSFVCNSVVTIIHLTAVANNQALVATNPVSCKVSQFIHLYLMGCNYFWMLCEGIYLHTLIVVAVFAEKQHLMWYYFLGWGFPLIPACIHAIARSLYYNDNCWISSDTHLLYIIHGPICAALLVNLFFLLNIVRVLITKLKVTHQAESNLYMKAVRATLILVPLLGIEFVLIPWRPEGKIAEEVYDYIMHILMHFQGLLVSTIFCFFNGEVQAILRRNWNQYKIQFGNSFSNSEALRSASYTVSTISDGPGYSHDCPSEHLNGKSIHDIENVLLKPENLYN
Chain of CLR/RAMP1 (O60894 27-148): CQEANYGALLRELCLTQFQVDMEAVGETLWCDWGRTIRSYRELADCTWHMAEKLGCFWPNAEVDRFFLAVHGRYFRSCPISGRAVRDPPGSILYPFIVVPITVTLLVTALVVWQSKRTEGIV
Method: as §1
For the analysis of signaling in CLR/RAMP1-expressing cells, cAMP Hunter cell lines were expanded from freezer stocks, and cells were seeded in white walled, 384-well microplates and incubated at 37C for the appropriate time. The activity was determined using the DiscoveRx HitHunter cAMP XS+ assay. Media was aspirated from cells and replaced with 15 μl 2:1 HBSS/10mM Hepes:cAMP XS+ Ab reagent. Intermediate dilution of sample stocks was performed to generate 4X sample in assay buffer, and 5 μl of 4X sample was added to cells and incubated at 37C or room temperature for the appropriate time. Vehicle concentration was 1%.
Microplates were read with a PerkinElmer instrument for chemiluminescent signal detection.

[1] = target: CLR/RAMP2 receptor complex (UniProt Q16602)
Chain of CLR/RAMP2 receptor complex (Q16602 23-461, chain 1 of 2): as the sequence (Q16602 23-461) above
Chain of CLR/RAMP2 receptor complex (O60895 43-175, chain 2 of 2, further chain): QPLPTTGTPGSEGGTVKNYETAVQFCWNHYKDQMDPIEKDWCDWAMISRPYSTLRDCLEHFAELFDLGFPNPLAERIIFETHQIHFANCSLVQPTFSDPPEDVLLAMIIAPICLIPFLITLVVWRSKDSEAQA

[2] = target: CLR/RAMP1 receptor complex (UniProt Q16602)
Chain of CLR/RAMP1 receptor complex (Q16602 23-461, chain 1 of 2): as the sequence (Q16602 23-461) above
Chain of CLR/RAMP1 receptor complex (O60894 27-148, chain 2 of 2, further chain): as the sequence (O60894 27-148) above

[3] = target: CLR/RAMP2 receptor complex (UniProt Q16602); remark: listed apart in the source

Chain of CLR/RAMP2 (Q16602 23-461): as the sequence (Q16602 23-461) above
Chain of CLR/RAMP2 (O60895 43-175): as the sequence (O60895 43-175, chain 2 of 2, further chain) above

Compound: CC[C@H](C)[C@H](NC(=O)[C@H](CCC(N)=O)NC(=O)[C@H](Cc1c[nH]cn1)NC(=O)[C@H](C)NC(=O)[C@H](CC(C)C)NC(=O)[C@H](CCCCN)NC(=O)[C@H](CCC(N)=O)NC(=O)[C@@H](NC(=O)[C@@H](NC(=O)[C@@H]1CSSC[C@H](NC(=O)CNC(=O)[C@@H](N)CCCCN)C(=O)N[C@@H](CCCNC(=N)N)C(=O)N[C@@H](Cc2ccccc2)C(=O)NCC(=O)N[C@@H]([C@@H](C)O)C(=O)N1)[C@@H](C)O)C(C)C)C(=O)N[C@@H](Cc1ccc(O)cc1)C(=O)N[C@@H](CCC(N)=O)C(=O)N[C@@H](Cc1ccccc1)C(=O)N[C@H](C(=O)N[C@@H](CC(=O)O)C(=O)N[C@@H](CCCCN)C(=O)N[C@@H](CC(=O)O)C(=O)N[C@@H](CCCCN)C(=O)N[C@@H](CC(=O)O)C(=O)N[C@@H](CC(N)=O)C(=O)N[C@@H](CO)C(=O)N[C@@H](C)C(=O)N1CCC[C@H]1C(=O)N[C@H](C(=O)N[C@@H](CC(=O)O)C(=O)N1CCC[C@H]1C(=O)N[C@@H](CO)C(=O)N[C@@H](CO)C(=O)N1CCC[C@H]1C(=O)N[C@@H](Cc1c[nH]cn1)C(=O)N[C@@H](CO)C(=O)N[C@@H](Cc1ccc(O)cc1)C(N)=O)C(C)C)[C@@H](C)O [Agonist 2]
EC50 (CLR/RAMP2; CHO-K1 cells stably expressing CLR/RAMP2, β-arrestin recruitment, 90 min at 37C, 10-point dose response in duplicate): 18 nM | CLR/RAMP2 Max Activity % of control (CLR/RAMP2): 115 % of control | EC50 (CLR/RAMP1; 1321N1 cells stably expressing CLR/RAMP1, cAMP read-out, chemiluminescence, 10-point dose response, 3-fold dilution, in duplicate): 31 nM | CLR/RAMP1 Max Activity % of control (CLR/RAMP1): 95 % of control

Compound: CCCCCCCCCCCCCCCC(=O)NCC(=O)N[C@H]1CSSC[C@@H](C(=O)N[C@H](C(=O)N[C@H](C(=O)N[C@@H](CCC(N)=O)C(=O)N[C@@H](CCCCN)C(=O)N[C@@H](CC(C)C)C(=O)N[C@@H](C)C(=O)N[C@@H](Cc2c[nH]cn2)C(=O)N[C@@H](CCC(N)=O)C(=O)N[C@H](C(=O)N[C@@H](Cc2ccc(O)cc2)C(=O)N[C@@H](CCC(N)=O)C(=O)N[C@@H](Cc2ccccc2)C(=O)N[C@H](C(=O)N[C@@H](CC(=O)O)C(=O)N[C@@H](CCCCN)C(=O)N[C@@H](CC(=O)O)C(=O)N[C@@H](CCCCN)C(=O)N[C@@H](CC(=O)O)C(=O)N[C@@H](CC(N)=O)C(=O)N[C@H](C(=O)N[C@@H](C)C(=O)N2CCC[C@H]2C(=O)N[C@@H](CCCNC(=N)N)C(=O)N[C@@H](CO)C(=O)N[C@@H](CCCCN)C(=O)N[C@H](C(=O)N[C@@H](CO)C(=O)N2CCC[C@H]2C(=O)N[C@@H](CCC(N)=O)C(=O)NCC(=O)N[C@@H](Cc2ccc(O)cc2)C(N)=O)[C@@H](C)CC)C(C)C)[C@@H](C)O)[C@@H](C)CC)C(C)C)[C@@H](C)O)NC(=O)[C@H]([C@@H](C)O)NC(=O)CNC(=O)[C@H](Cc2ccccc2)NC(=O)[C@H](CCCNC(=N)N)NC1=O [Agonist 3]
CLR/RAMP2 Max Activity % of control (CLR/RAMP2): 78 % of control

Compound: adrenomedullin 14–52 (peptide)
EC50 of CLR/RAMP2 signalling (CHO-K1 cells, PathHunter β-Arrestin assay) [3]: 9 nM

Second part, the compound after the results:

CLR/RAMP2 Max Activity % of control (CLR/RAMP2): 102 % of control | CLR/RAMP1 Max Activity % of control (CLR/RAMP1): 69 % of control
Compound: CC[C@H](C)[C@H](NC(=O)[C@H](CCC(N)=O)NC(=O)[C@H](Cc1c[nH]cn1)NC(=O)[C@H](C)NC(=O)[C@H](CC(C)C)NC(=O)[C@H](CCCCN)NC(=O)[C@H](CCC(N)=O)NC(=O)[C@@H](NC(=O)[C@@H](NC(=O)[C@@H]1CSSC[C@H](NC(=O)CNC(=O)[C@@H](N)Cc2ccccc2)C(=O)N[C@@H](CCCNC(=N)N)C(=O)N[C@@H](Cc2ccccc2)C(=O)NCC(=O)N[C@@H]([C@@H](C)O)C(=O)N1)[C@@H](C)O)C(C)C)C(=O)N[C@@H](Cc1ccc(O)cc1)C(=O)N[C@@H](CCC(N)=O)C(=O)N[C@@H](Cc1ccccc1)C(=O)N[C@H](C(=O)N[C@@H](CC(=O)O)C(=O)N[C@@H](CCCCN)C(=O)N[C@@H](CC(=O)O)C(=O)N[C@@H](CCCCN)C(=O)N[C@@H](CC(=O)O)C(=O)N[C@@H](CC(N)=O)C(=O)N[C@H](C(=O)N[C@@H](C)C(=O)N1CCC[C@H]1C(=O)N[C@@H](CCCNC(=N)N)C(=O)N[C@@H](CO)C(=O)N[C@@H](CCCCN)C(=O)N[C@H](C(=O)N[C@@H](CO)C(=O)N1CCC[C@H]1C(=O)N[C@@H](CCC(N)=O)C(=O)NCC(=O)N[C@@H](Cc1ccc(O)cc1)C(N)=O)[C@@H](C)CC)C(C)C)[C@@H](C)O [ADM14-52, adrenomedullin 14–52, reference compound]

IC50 of inhibition of ADM-mediated CLR/RAMP2 β-arrestin signalling (EC80 of ADM; pair blocked: ADM + m25) [1]: 256 nM | IC50 of inhibition of CGRP-mediated CLR/RAMP1 cAMP signalling (EC80 of CGRP; pair blocked: m4 + m24) [2]: 6600 nM
Compound: ADM22-52 (peptide)

IC50 of inhibition of ADM-mediated CLR/RAMP2 β-arrestin signalling (EC80 of ADM; pair blocked: ADM + m25) [1]: > 10000 nM
Compound: CGRP8-37 (peptide)

EC50 of CLR/RAMP2 signalling (CHO-K1 cells, PathHunter β-Arrestin assay) [3]: 70 nM
Compound: adrenomedullin 2 (peptide)
